# According to patent US5705487A, “Antithrombotic agents” (priority 1995, dated 1998):
# Counter-ions that a name gives are not always drawn.
# Experiments:
# Type in all cases: biochemical
# Human plasmin = target: T1, Human plasmin (Homo sapiens, UniProt P00747); test: Kass, plasmin chromogenic substrate assay; conditions: substrate H-D-Val-Leu-Lys-p-nitroanilide
# T1 construct: Human plasmin is purchased from Boehringer Mannheim; purchased Boehringer Mannheim, Indianapolis, Ind
# Human Thrombin = Human Thrombin (Homo sapiens, UniProt P00734); test: Inhibition of the amidase activity of thrombin (Kass); conditions: chromogenic substrate N-benzoyl-Phe-Val-Arg-p-nitroanilide; mean over range of concentrations
# Human Plasma [1] = test: Human plasma anticoagulation, thrombin time (TT); conditions: concentration required to double the clotting time
# Description: (§1) Dog plasma and rat plasma is obtained from conscious mixed-breed hounds (either sex, Hazelton-LRE, Kalamazoo, Mich., U.S.A.) or from anesthetized male Sprague-Dawley rats (Harlan Sprague-Dawley, Inc., Indianapolis, Ind., U.S.A.) by venipuncture into 3.8 percent citrate. Fibrinogen is prepared from in-date ACD human blood as the fraction I-2 according to previous procedures and specifications. […] Human fibrinogen is also purchased as 98 percent pure/plasmin free from American Diagnostica, Greenwich, Conn. Coagulation reagents ACTIN, Thromboplastin, and Human plasma are from Baxter Healthcare Corp., Dade Division, Miami, Fla. Bovine thrombin from Parke-Davis ([…], Mich.) is used for coagulation assays in plasma.
# (§2) Coagulation assay procedures are as previously described. […] A CoAScreener coagulation instrument (American LABor, Inc.) is used for all coagulation assay measurements. The prothrombin time (PT) is measured by adding 0.05 mL saline and 0.05 mL Thromboplastin-C reagent to 0.05 mL test plasma. The activated partial thromboplastin time (APTT) is measured by incubation of 0.05 mL test plasma with 0.05 mL Actin reagent for 120 seconds followed by 0.05 mL CaCl2 (0.02M). The thrombin time (TT) is measured by adding 0.05 mL saline and 0.05 mL thrombin (10 NIH units/mL) to 0.05 mL test plasma. The compounds of Formula I are added to human or animal plasma over a wide range of concentrations to determine prolongation effects on the APTT, PT, and TT assays. Linear extrapolations are performed to estimate the concentrations required to double the clotting time for each assay.
# Bovine trypsin = target: T2, Bovine trypsin (Bos taurus, UniProt P00760); test: Kass, trypsin chromogenic substrate assay; conditions: substrate N-Benzoyl-Phe-Val-Arg-p-nitroanilide
# T2 construct: Bovine trypsin is purchased from Worthington Biochemicals; purchased Worthington Biochemicals, Freehold, N.J
# T2 sequence (P00760 24-246): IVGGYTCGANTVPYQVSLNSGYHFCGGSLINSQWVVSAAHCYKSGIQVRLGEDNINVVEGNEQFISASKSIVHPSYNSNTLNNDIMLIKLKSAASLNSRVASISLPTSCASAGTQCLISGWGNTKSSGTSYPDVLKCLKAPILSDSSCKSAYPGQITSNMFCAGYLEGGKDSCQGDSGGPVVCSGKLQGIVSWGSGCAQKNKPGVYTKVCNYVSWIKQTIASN
# t-PA = target: T3, t-PA (Homo sapiens, UniProt P00750); test: Kass, t-PA chromogenic substrate assay; conditions: substrate H-D-Ile-Pro-Arg-p-nitroanilide
# T3 construct: purchased American Diagnostica, Greenwich, Conn
# factor Xa = target: T4, factor Xa (Homo sapiens, UniProt P00742); test: Kass, factor Xa chromogenic substrate assay; conditions: substrate N-Benzoyl-Ile-Glu-Gly-Arg-p-nitroanilide
# T4 construct: Human factors X, Xa, IXa, XIa, and XIIa are purchased; purchased Enzyme Research Laboratories, South Bend, Ind
# Human Plasma [2] = test: Human plasma anticoagulation, activated partial thromboplastin time (APTT); conditions: concentration required to double the clotting time
# Description: as §1, §2
# Human Plasma [3] = test: Human plasma anticoagulation, prothrombin time (PT); conditions: concentration required to double the clotting time
# Description: as §1, §2
# T1 sequence (P00747 581-810 limits assumed): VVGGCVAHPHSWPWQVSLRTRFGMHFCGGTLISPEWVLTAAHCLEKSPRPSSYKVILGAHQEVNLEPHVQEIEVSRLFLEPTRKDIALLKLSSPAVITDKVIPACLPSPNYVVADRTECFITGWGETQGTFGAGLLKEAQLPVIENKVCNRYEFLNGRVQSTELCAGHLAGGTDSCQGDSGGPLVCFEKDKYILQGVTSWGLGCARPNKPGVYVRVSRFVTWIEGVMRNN
# T1 sequence (P00747 97-580 partner limits assumed): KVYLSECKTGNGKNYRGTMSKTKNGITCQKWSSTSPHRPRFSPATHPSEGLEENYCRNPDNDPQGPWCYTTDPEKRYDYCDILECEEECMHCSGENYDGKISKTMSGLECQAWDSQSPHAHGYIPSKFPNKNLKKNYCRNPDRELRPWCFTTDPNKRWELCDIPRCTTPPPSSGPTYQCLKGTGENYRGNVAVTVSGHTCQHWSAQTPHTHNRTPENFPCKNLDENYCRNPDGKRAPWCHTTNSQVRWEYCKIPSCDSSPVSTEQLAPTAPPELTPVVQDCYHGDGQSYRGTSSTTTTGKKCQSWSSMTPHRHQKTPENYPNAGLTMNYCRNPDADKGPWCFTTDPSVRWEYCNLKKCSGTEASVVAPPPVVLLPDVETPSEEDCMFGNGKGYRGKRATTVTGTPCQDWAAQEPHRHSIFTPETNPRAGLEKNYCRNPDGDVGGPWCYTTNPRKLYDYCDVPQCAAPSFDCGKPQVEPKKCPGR
# T3 sequence (P00750 36-562): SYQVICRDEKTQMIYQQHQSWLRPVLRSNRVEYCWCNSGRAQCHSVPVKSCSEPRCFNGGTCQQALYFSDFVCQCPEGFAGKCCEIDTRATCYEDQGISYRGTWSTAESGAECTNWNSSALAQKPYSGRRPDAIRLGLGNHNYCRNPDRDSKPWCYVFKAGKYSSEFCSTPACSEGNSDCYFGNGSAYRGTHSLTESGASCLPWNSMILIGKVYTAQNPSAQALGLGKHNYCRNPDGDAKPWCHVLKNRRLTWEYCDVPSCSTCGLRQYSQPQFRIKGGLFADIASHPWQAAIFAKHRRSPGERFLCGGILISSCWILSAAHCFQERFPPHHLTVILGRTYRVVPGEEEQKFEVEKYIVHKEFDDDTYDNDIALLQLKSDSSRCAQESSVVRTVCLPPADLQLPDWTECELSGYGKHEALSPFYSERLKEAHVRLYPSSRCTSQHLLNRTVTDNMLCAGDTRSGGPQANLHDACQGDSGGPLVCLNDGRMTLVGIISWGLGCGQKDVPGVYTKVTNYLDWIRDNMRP
# T4 sequence (P00742 235-488 limits assumed): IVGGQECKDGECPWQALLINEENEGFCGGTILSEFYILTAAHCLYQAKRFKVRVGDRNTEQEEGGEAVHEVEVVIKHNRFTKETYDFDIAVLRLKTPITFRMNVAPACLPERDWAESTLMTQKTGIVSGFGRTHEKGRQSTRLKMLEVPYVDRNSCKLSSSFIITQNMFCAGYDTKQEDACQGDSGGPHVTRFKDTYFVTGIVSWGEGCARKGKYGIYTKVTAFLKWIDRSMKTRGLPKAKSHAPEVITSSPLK
# T4 sequence (P00742 41-179 partner limits assumed): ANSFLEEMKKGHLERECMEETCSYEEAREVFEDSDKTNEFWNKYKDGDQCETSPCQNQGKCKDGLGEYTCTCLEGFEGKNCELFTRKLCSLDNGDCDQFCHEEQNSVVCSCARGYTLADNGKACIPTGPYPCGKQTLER
Molecule,Kass × 10^6 (L/mole) Plasmin (Human plasmin),Kass × 10^6 (L/mole) Human Thrombin (Human Thrombin),Kass × 10^6 (L/mole) Trypsin (Bovine trypsin),Kass × 10^6 (L/mole) t-PA (t-PA),Kass × 10^6 (L/mole) Xa (factor Xa),Human Plasma Anticoagulation 2x Clotting time TT (Human Plasma [1]),Human Plasma Anticoagulation 2x Clotting time APTT (Human Plasma [2]),Human Plasma Anticoagulation 2x Clotting time PT (Human Plasma [3])
"CCOC(=O)N[C@H](Cc1ccccc1)C(=O)N1CCC[C@H]1C(=O)NCCCCN=C(N)N.Cl [Example 3, EtOCO-D-Phe-Pro-Agm.HCl]",0.0046 × 10^6 L/mole,2.1 × 10^6 L/mole,0.24 × 10^6 L/mole,0.033 × 10^6 L/mole,0.0021 × 10^6 L/mole,590 ng/mL,–,–
"Cl.O=C(O)CNC(CC1CCCCC1)C(=O)N1CCCC1C(=O)NCCC1CCNCC1 [Example 54, HO2 CCH2 -D-Cha-Pro-4-NHCH2 CH2 -piperidine.HCl]",0.01 × 10^6 L/mole,2.8 × 10^6 L/mole,0.52 × 10^6 L/mole,< 0.001 × 10^6 L/mole,< 0.001 × 10^6 L/mole,140 ng/mL,"3,300 ng/mL","2,200 ng/mL"
"O=C(O)CN[C@H](CC1CCCCC1)C(=O)N1CCC[C@H]1C(=O)NCCCC1CCNCC1 [Example 55, HO2 CCH2 -D-Cha-Pro-4-NHCH2 CH2 CH2 -piperidine.HCl]",< 0.001 × 10^6 L/mole,0.01 × 10^6 L/mole,0.01 × 10^6 L/mole,< 0.001 × 10^6 L/mole,< 0.001 × 10^6 L/mole,"55,800 ng/mL","> 91,000 ng/mL","> 91,000 ng/mL"
"Cl.O=C(O)CN[C@H](CC1CCCCC1)C(=O)N1CCC[C@H]1C(=O)NCCC1=CCNCC1 [Example 59, HO2 CCH2 -D-Cha-Pro-4-NHCH2 CH2 -3,4-dehydro-piperidine.HCl]",< 0.001 × 10^6 L/mole,1.10 × 10^6 L/mole,0.21 × 10^6 L/mole,< 0.001 × 10^6 L/mole,< 0.001 × 10^6 L/mole,420 ng/mL,"5,500 ng/mL","7,000 ng/mL"
"N=C(N)NCCCNC(=O)[C@@H]1CCCN1C(=O)[C@H](N)Cc1ccccc1 [Example 7, D-Phe-Pro-NH(CH2)3 NHC(NH)NH2.HCl]",0.00022 × 10^6 L/mole,1.9 × 10^6 L/mole,0.0081 × 10^6 L/mole,0.0037 × 10^6 L/mole,0.0041 × 10^6 L/mole,490 ng/mL,–,–
"Cl.NC[C@H]1CC[C@H](CNC(=O)[C@@H]2CCCN2C(=O)[C@H](N)Cc2ccccc2)CC1 (relative stereo) [Example 12, D-Phe-Pro-NHCH2 -trans-4-(aminomethyl)cyclohexane.HCl]",0.00087 × 10^6 L/mole,0.44 × 10^6 L/mole,0.0022 × 10^6 L/mole,0.000042 × 10^6 L/mole,0.000042 × 10^6 L/mole,"1,700 ng/mL",–,–
"Cl.NCc1cccc(CNC(=O)[C@@H]2CCCN2C(=O)[C@H](N)Cc2ccccc2)c1 [Example 11, D-Phe-Pro-m-NHCH2 C6 H4 CH2 NH2.HCl]",0.0060 × 10^6 L/mole,0.064 × 10^6 L/mole,0.0036 × 10^6 L/mole,< 0.001 × 10^6 L/mole,0.000068 × 10^6 L/mole,"8,800 ng/mL",–,–

# Continued, in another order:
Kass × 10^6 (L/mole) Plasmin (Human plasmin),Kass × 10^6 (L/mole) Human Thrombin (Human Thrombin),Kass × 10^6 (L/mole) Trypsin (Bovine trypsin),Kass × 10^6 (L/mole) t-PA (t-PA),Kass × 10^6 (L/mole) Xa (factor Xa),Molecule,Human Plasma Anticoagulation 2x Clotting time TT (Human Plasma [1]),Human Plasma Anticoagulation 2x Clotting time APTT (Human Plasma [2]),Human Plasma Anticoagulation 2x Clotting time PT (Human Plasma [3])
0.0017 × 10^6 L/mole,0.97 × 10^6 L/mole,0.02 × 10^6 L/mole,0.0012 × 10^6 L/mole,0.0051 × 10^6 L/mole,"Cl.N=C(N)c1cccc(CNC(=O)[C@@H]2CCCN2C(=O)[C@H](N)Cc2ccccc2)c1 [Example 16, D-Phe-Pro-m-NHCH2 C6 H4 C(NH)NH2.0.75HCl]",650 ng/mL,"8,600 ng/mL","8,500 ng/mL"
< 0.001 × 10^6 L/mole,0.43 × 10^6 L/mole,0.01 × 10^6 L/mole,0.01 × 10^6 L/mole,< 0.001 × 10^6 L/mole,"N=C(N)c1cccc(CNC(=O)[C@@H]2CCCN2C(=O)[C@@H]2NCC[C@@H]3CCCC[C@@H]32)c1 [Example 25, D-1-Piq-Pro-m-NHCH2 -C6 H4 C(=NH)NH2.HCl]","1,430 ng/mL","34,600 ng/mL","40,400 ng/mL"
0.01 × 10^6 L/mole,13. × 10^6 L/mole,0.21 × 10^6 L/mole,0.01 × 10^6 L/mole,0.01 × 10^6 L/mole,"CCS(=O)(=O)N[C@H](Cc1ccccc1)C(=O)N1CCC[C@H]1C(=O)NCCc1ccc(C(=N)N)cc1 [Example 26, EtSO2 -D-Phe-Pro-p-NHCH2 CH2 -C6 H4 C(=NH)NH2.HCl]",37 ng/mL,870 ng/mL,750 ng/mL
1.8 × 10^6 L/mole,40 × 10^6 L/mole,–,0.04 × 10^6 L/mole,4.3 × 10^6 L/mole,HOOCCH2 -D-Phe-Pro(4-cis-isoamyl)-p-NHCH2 C6 H4 C(NH)NH2.HCl [Example 50],35 ng/mL,460 ng/mL,420 ng/mL
0.12 × 10^6 L/mole,38. × 10^6 L/mole,43. × 10^6 L/mole,0.01 × 10^6 L/mole,0.07 × 10^6 L/mole,"Cl.Cl.N=C(N)c1ccc(CNC(=O)C2CC3CCCCC3N2C(=O)C2NCCC3CCCCC32)cc1 [Example 42, D-1-Piq-cis-Ohi-p-NHCH2 C6 H4 C(NH)NH2.2HCl]",20 ng/mL,270 ng/mL,320 ng/mL
0.000046 × 10^6 L/mole,0.021 × 10^6 L/mole,0.000056 × 10^6 L/mole,< 0.001 × 10^6 L/mole,0.00014 × 10^6 L/mole,"Cl.Nc1ccc(CCNC(=O)[C@@H]2CCCN2C(=O)[C@H](N)Cc2ccccc2)cc1 [Example 14, D-Phe-Pro-P-NHCH2 CH2 C6 H4 NH2.HCl]","21,000 ng/mL",–,–
